Laboratory results taken from article PMC5821110 (Cancer immunology research, 2017).

system: HLA-A2; test: Peptide binding affinity: stabilization of HLA-A2 on TAP-deficient T2 cells; details: stabilization (normalized mean fluorescence intensity) of HLA-A2 on TAP-deficient T2 cells by test peptide relative to a non-binding peptide; six hours incubation; flow cytometry

| Sequence | Observed relative binding |
| --- | --- |
| RLQGISPKL [IL] | 3.89 |
| RLQGISPKI [Nat] | 3.61 |
| FLQGISPKI [RF] | 4.97 |
| RIQGISPKI [LI] | 2.34 |
| RLQGISPKP [IP] | 1.07 |
| FLQGISPKA [RF-IA] | 4.78 |
| RLQGISPKV [IV] | 3.88 |
| RAQGISPKI [LA] | 1.31 |
| FLQGISPKV [RF-IV] | 4.25 |
| RLQGISPKA [IA] | 3.79 |

system: E.G7-OVA PD-L1^high tumors; test: Tumor treatment study: peptide immunization after OT-1 adoptive transfer; type: in vivo, C57BL/6 mice; details: tumors removed on day 40, flow cytometry; 100 µg peptide in CFA

| Sequence | Number of CD8 TILs (percent of CD45^+ cells) compared to high-affinity vaccination |
| --- | --- |
| SIINTEKL [FT] | significantly increased |
